The values that follow come from article PMC5147771, “High-Resolution Genetics Identifies the Lipid Transfer Protein Sec14p as Target for Antifungal Ergolines” (PLoS Genetics, 2016).

The subject of assay [1] is FLU-resistant C. neoformans strain BPY22. Nature of the assay: microbe, parasite or virus in culture. It counts as cell-based. To be noted: for MIC: Cryptococcus neoformans, 48 h.
For assay [2], the system named is FLU-sensitive (DSY4982) and FLU-resistant (BPY22 and BPY17) C. neoformans isolates. In kind it is cell-based.

Structures are written as SMILES. Values after ≈ are worked out from the molar mass of the structure shown. Like-named read-outs stand apart in the source and are kept apart here.

On to `CN1C[C@H](C(=O)Nc2cccc(C(F)(F)F)c2)C[C@@H]2c3cccc4c3[C@H](C[C@H]21)CN4C(=O)OC(C)(C)C` [NGx03], for which the MIC was found to be 32 µg/mL (≈ 62.1 µM) in assay [1] (read-out: MIC-0) and 16 µg/mL (≈ 31 µM) in assay [1] (read-out: MIC-2). In addition, in assay [2], the “mechanism of inhibition (fungicidal vs fungistatic)” value is “fungicidal effect”.
Take `COC(=O)[C@@H]1C[C@@H]2c3cccc4c3[C@H](C[C@H]2N(C)C1)CN4C(=O)OCC(Cl)(Cl)Cl` [NGx16]: in assay [1], the “activity against FLU-resistant strain (in words)” value was “weaker activity”. Further, the “mechanism of inhibition (fungicidal vs fungistatic)” value in assay [2] is recorded as “fungicidal effect”.
For the compound `COC(=O)[C@@H]1C[C@@H]2c3c([N+](=O)[O-])ccc4c3[C@H](C[C@H]2N(C)C1)CN4C(=O)OCC(Cl)(Cl)Cl` [NGx19], the “activity against FLU-resistant strain (in words)” value in assay [1] is listed as “weaker activity”.
